Source: article PMC11275008, “Anti-Inflammatory and Cancer-Preventive Potential of Chamomile (Matricaria chamomilla L.): A Comprehensive In Silico and In Vitro Study” (Biomedicines, 2024)

Target: T1, NF-κB (recombinant human NF-κB; docking used NF-κB p65-RelA) (Homo sapiens, UniProt Q04206)
T1 construct: commercial recombinant protein (Sino Biological); labelled with RED-NHS 2nd generation dye on lysines
Assay: microscale thermophoresis
Type: binding

T1 sequence (Q04206 whole entry): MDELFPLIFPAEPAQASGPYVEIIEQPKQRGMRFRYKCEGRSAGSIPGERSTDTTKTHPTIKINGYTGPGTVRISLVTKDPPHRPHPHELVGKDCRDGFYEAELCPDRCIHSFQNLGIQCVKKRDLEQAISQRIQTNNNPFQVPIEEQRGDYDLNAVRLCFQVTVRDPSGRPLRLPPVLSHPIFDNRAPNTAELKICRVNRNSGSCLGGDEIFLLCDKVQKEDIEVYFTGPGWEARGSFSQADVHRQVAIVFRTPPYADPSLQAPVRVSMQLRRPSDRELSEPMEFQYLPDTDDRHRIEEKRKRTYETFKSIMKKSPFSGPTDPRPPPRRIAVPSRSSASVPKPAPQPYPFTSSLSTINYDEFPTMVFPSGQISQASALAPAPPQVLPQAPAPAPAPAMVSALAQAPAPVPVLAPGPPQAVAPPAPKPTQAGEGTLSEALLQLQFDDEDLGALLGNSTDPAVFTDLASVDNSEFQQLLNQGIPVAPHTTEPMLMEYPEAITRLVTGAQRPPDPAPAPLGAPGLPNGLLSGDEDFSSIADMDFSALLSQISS

SMILES: CC1(C)CC[C@]2(C)CC[C@]3(C)C(=CC[C@@H]4[C@@]5(C)CC[C@H](O)C(C)(C)[C@@H]5CC[C@]43C)[C@@H]2C1 [β-amyrin]
- Kd: 943 ± 113 nM
